Assay results reported in patent US20220380334A1, “(-) - CIS TETRAHYDROCANNABINOL ((-) - CIS-THC) FOR USE AS A MEDICAMENT” (GW Research Limited, priority 2019, published 2022).
“Also recorded” adds a separate entry of the source. Marks after values point to notes of the source that are not given here.

Assays:
[1] = test system: tonic hind limb convulsions; assay: Mouse supramaximal electroshock seizure (MES) model of generalized seizures; assay type: in vivo
Method: Mice were administered MES (30 mA, rectangular current: 0.6 ms pulse width, 0.2 s duration, 50 Hz) via corneal electrodes connected to a constant current shock generator (Ugo Basile: type 7801) to reliably produce tonic hind limb convulsions. The number of tonic convulsions was recorded.
Sixteen mice were studied per group. The test was performed blind.
The test substance, (−)-cis-THC, was evaluated at 4 doses (10, 50, 100 and 150 mg/kg), administered i.p. 60 minutes before MES, and compared with a vehicle control group (administered under the same experimental conditions).
Valproate (positive control) was administered at 250 mg/kg i.p. 30 minutes before MES, was used as a reference substance and was compared with a vehicle group (administered i.p. 60 minutes before MES).
Data was analysed by comparing treated groups with the appropriate vehicle control using 2-tailed Fisher's Exact Probability tests (p<0.05 considered significant).

[2] = test system: withdrawal threshold on hot plate at 52° C.; assay: Mouse hotplate test of anti-nociceptive potential; assay type: in vivo; conditions: for Withdrawal threshold (sec) Mean +/− SEM: hot plate 52° C.
Method: Mice underwent a minimum habituation period of 7 days prior to study commencement. Naïve mice were acclimatised to the procedure room in their home cages, with food and water available ad libitum.
Animals were treated with either treatment vehicle, (−)-cis-THC at 1, 15, 50, 100, 125 and 150 mg/kg at 10 ml/kg i.p. or Morphine 10 mg/kg or Morphine vehicle (Saline) at 10 ml/kg i.p.
Animals were placed onto a hot plate set at 52° C. and time to withdrawal threshold (first response of lifting, licking front or hind paws or trying to escape) was taken at 1-hour post treatment, or at 0.5 hour after the positive control.
Animals were culled by a schedule 1 method, immediately after the measurement.
Data were analysed by comparing withdrawal thresholds back to Vehicle treated group

[3] = depending on the assay; cited from earlier work

## CCCCCc1cc(O)c2c(c1)OC(C)(C)[C@H]1CCC(C)=C[C@@H]21 (relative stereo) [(−)-cis-THC, (−)-cis-delta-9-tetrahydrocannabinol]
[1]; 10 mg/kg I.P., pre-treatment time 60 mins
  % change from vehicle in number of tonic clonic seizures after MES: No effect
[1]; 10 mg/kg I.P., pre-treatment time 60 mins, listed as (-)-cis-THC
  % change from vehicle in number of tonic clonic seizures after MES: 0.0%
[1]; 50 mg/kg I.P., pre-treatment time 60 mins
  % change from vehicle in number of tonic clonic seizures after MES: 25%
[1]; 50 mg/kg I.P., pre-treatment time 60 mins, listed as (-)-cis-THC
  % change from vehicle in number of tonic clonic seizures after MES: 25.0%
[1]; 100 mg/kg I.P., pre-treatment time 60 mins
  % change from vehicle in number of tonic clonic seizures after MES: 6.3%
[1]; 150 mg/kg I.P., pre-treatment time 60 mins
  % change from vehicle in number of tonic clonic seizures after MES: 25%
[1]; 150 mg/kg I.P., pre-treatment time 60 mins, listed as (-)-cis-THC
  % change from vehicle in number of tonic clonic seizures after MES: 25.0%
[1]; 10, 50, 100 and 150 mg/kg i.p.
  anti-convulsant effect in the MES model (overall conclusion): did not produce a significant anti-convulsant effect
[2]; 1 mg/kg I.P., 1-hour post treatment
  Withdrawal threshold (sec) Mean +/− SEM: 10.99 ± 0.92 s
[2]; 15 mg/kg I.P., 1-hour post treatment
  Withdrawal threshold (sec) Mean +/− SEM: 10.22 ± 0.94 s
[2]; 50 mg/kg I.P., 1-hour post treatment
  Withdrawal threshold (sec) Mean +/− SEM: 12.68 ± 1.11 s
[2]; 100 mg/kg I.P., 1-hour post treatment
  Withdrawal threshold (sec) Mean +/− SEM: 14.23 ± 1.37 s
[2]; 125 mg/kg I.P., 1-hour post treatment
  Withdrawal threshold (sec) Mean +/− SEM: 15.28 ± 1.19 s
[2]; 1 to 150 mg/kg i.p.
  anti-nociceptive effect in the hotplate test (overall, in words): dose-related increase in withdrawal threshold; also recorded: significant anti-nociceptive effect

## CCCCCc1cc(O)c2c(c1)OC(C)(C)[C@@H]1CCC(C)=C[C@@H]21 [(−)-trans-THC, (−)-trans-delta-9-tetrahydrocannabinol]
[3]
  potency relative to the (+)-trans-THC isomer: 6-100 times

## CN1CC[C@]23c4c5ccc(O)c4O[C@H]2[C@@H](O)C=C[C@H]3[C@H]1C5 [Morphine, reference compound]
[2]; 10 mg/kg I.P., 0.5 hour after treatment
  Withdrawal threshold (sec) Mean +/− SEM: 23.17 +/− 1.54 *** sec
[2]; 10 mg/kg I.P., 0.5 hour after treatment, listed as morphine
  Withdrawal threshold (sec) Mean +/− SEM: significant increase

## CCCC(CCC)C(=O)O [Valproate, reference compound]
[1]; 250 mg/kg I.P., pre-treatment time 30 mins
  % change from vehicle in number of tonic clonic seizures after MES: 93.8%
